Test results published in patent publication US20250282799A1, “SUBSTITUTED PYRIDO[4,3-d]PYRIMIDINES AS KRAS MODULATORS” (Alterome Therapeutics, Inc., priority 2023, published 2025).

System: KRAS G12V dependent lung adenocarcinoma cell line, NCI-H441
Assay: Cellular pERK (Thr202/Tyr204) FRET/HTRF assay
Format: cell-based
Conditions: Homo sapiens, NCI-H441, cellular pERK (Thr202/Tyr204) HTRF, NCI-H441 cells
Summary of the method: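 Read-out is a wash-free FRET sandwich immunoassay for endogenous ERK1/2 phosphorylated on Thr202/Tyr204. Signal was measured in NCI-H441 lung adenocarcinoma cells after 1 hr compound exposure at 37 °C. IC50 values come from fitted concentration-response curves.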

Structure (SMILES): [2H]C([2H])(Oc1nc(N2CCC=C[C@H]3[C@H](F)[C@H]32)c2cnc(-c3cccc4ccc(F)c(C#C)c34)c(F)c2n1)[C@@]12CCCN1C[C@H](F)C2 [Example 147, 7-(8-Ethynyl-7-fluoronaphthalen-1-yl)-8-fluoro-4-((1S,7R,8S)-8-fluoro-2-azabicyclo[5.1.0]oct-5-en-2-yl)-2-(((2R,7aS)-2-fluorotetrahydro-1H-pyrrolizin-7a(5H)-yl)methoxy-d2)pyrido[4,3-d]pyrimidine]
- IC50: < 50 nM

Structure (SMILES): [2H]C([2H])([2H])Oc1c(F)c(F)c(F)c2cc(N)cc(-c3ncc4c(N5CCC=C[C@H]6[C@H](F)[C@H]65)nc(OC([2H])([2H])[C@@]56CCCN5C[C@H](F)C6)nc4c3F)c12 [Example 148, 6,7,8-Trifluoro-4-(8-fluoro-4-((1S,7R,8S)-8-fluoro-2-azabicyclo[5.1.0]oct-5-en-2-yl)-2-(((2R,7aS)-2-fluorotetrahydro-1H-pyrrolizin-7a(5H)-yl)methoxy-d2)pyrido[4,3-d]pyrimidin-7-yl)-5-(methoxy-d3)naphthalen-2-amine]
- IC50: 50 to 500 nM

Structure (SMILES): [2H]C([2H])([2H])Oc1c(F)cc(F)c2cc(N)cc(-c3ncc4c(N5CCC=C[C@H]6[C@H](F)[C@H]65)nc(OC([2H])([2H])[C@@]56CCCN5C[C@H](F)C6)nc4c3F)c12 [Example 149, 6,8-difluoro-4-(8-fluoro-4-((1S,7R,8S)-8-fluoro-2-azabicyclo[5.1.0]oct-5-en-2-yl)-2-(((2R,7aS)-2-fluorotetrahydro-1H-pyrrolizin-7a(5H)-yl)methoxy-d2)pyrido[4,3-d]pyrimidin-7-yl)-5-(methoxy-d3)naphthalen-2-amine]
- IC50: < 50 nM

Structure (SMILES): [2H]C([2H])(Oc1nc(N2CCC=C[C@H]3[C@H](F)[C@H]32)c2cnc(-c3cc(N)cc4ccc(F)c(C#C)c34)c(F)c2n1)[C@@]12CCCN1C[C@H](F)C2 [Example 150, 5-Ethynyl-6-fluoro-4-(8-fluoro-4-((1S,7R,8S)-8-fluoro-2-azabicyclo[5.1.0]oct-5-en-2-yl)-2-(((2R,7aS)-2-fluorotetrahydro-1H-pyrrolizin-7a(5H)-yl)methoxy-d2)pyrido[4,3-d]pyrimidin-7-yl)naphthalen-2-amine]
- IC50: < 50 nM

Structure (SMILES): [2H]C([2H])(F)Oc1c(F)cc(F)c2cccc(-c3ncc4c(N5CCOC[C@H]6[C@H](F)[C@H]65)nc(OC([2H])([2H])[C@@]56CCCN5C[C@H](F)C6)nc4c3F)c12 [Example 151, (1S,7S,8S)-2-(7-(5,7-difluoro-8-(fluoromethoxy-d2)naphthalen-1-yl)-8-fluoro-2-(((2R,7aS)-2-fluorotetrahydro-1H-pyrrolizin-7a(5H)-yl)methoxy-d2)pyrido[4,3-d]pyrimidin-4-yl)-8-fluoro-5-oxa-2-azabicyclo[5.1.0]octane]
- IC50: < 50 nM

Structure (SMILES): [2H]C([2H])(Oc1nc(N2CCOC[C@H]3[C@H](F)[C@H]32)c2cnc(-c3nc(N)cc4ccc(F)c(Cl)c34)c(F)c2n1)[C@@]12CCCN1C[C@H](F)C2 [Example 152, 8-chloro-7-fluoro-1-(8-fluoro-4-((1S,7S,8S)-8-fluoro-5-oxa-2-azabicyclo[5.1.0]octan-2-yl)-2-(((2R,7aS)-2-fluorotetrahydro-1H-pyrrolizin-7a(5H)-yl)methoxy-d2)pyrido[4,3-d]pyrimidin-7-yl)isoquinolin-3-amine]
- IC50: 50 to 500 nM

Structure (SMILES): [2H]C([2H])(Oc1nc(N2CCCC[C@H]3[C@H](F)[C@H]32)c2cnc(-c3nc(N)cc4ccc(F)c(Cl)c34)c(F)c2n1)[C@@]12CCCN1C[C@H](F)C2 [Example 153, 8-chloro-7-fluoro-1-(8-fluoro-4-((1S,7R,8S)-8-fluoro-2-azabicyclo[5.1.0]octan-2-yl)-2-(((2R,7aS)-2-fluorotetrahydro-1H-pyrrolizin-7a(5H)-yl)methoxy-d2)pyrido[4,3-d]pyrimidin-7-yl)isoquinolin-3-amine]
- IC50: 50 to 500 nM

Structure (SMILES): [2H]C([2H])(Oc1nc(N2CCOC[C@H]3[C@H](F)[C@H]32)c2cnc(-c3nc(N)cc4ccc(F)c(C#C)c34)c(F)c2n1)[C@@]12CCCN1C[C@H](F)C2 [Example 154]
- IC50: < 50 nM

Structure (SMILES): C#Cc1c(F)ccc2cc(N)cc(-c3ncc4c(N5CCOC[C@H]6[C@H](F)[C@H]65)nc(OC[C@@]56CCCN5C/C(=C\F)C6)nc4c3F)c12 [Example 155, 5-Ethynyl-6-fluoro-4-(8-fluoro-4-((1S,7S,8S)-8-fluoro-5-oxa-2-azabicyclo[5.1.0]octan-2-yl)-2-(((S,Z)-2-(fluoromethylene)tetrahydro-1H-pyrrolizin-7a(5H)-yl)methoxy)pyrido[4,3-d]pyrimidin-7-yl)naphthalen-2-amine]
- IC50: < 50 nM

Structure (SMILES): [2H]C([2H])(F)Oc1c(F)ccc2cccc(-c3ncc4c(N5CCOC[C@H]6[C@H](F)[C@H]65)nc(OC[C@@]56CCCN5C/C(=C/F)C6)nc4c3F)c12 [Example 156, (1S,7S,8S)-8-fluoro-2-(8-fluoro-7-(7-fluoro-8-(fluoromethoxy-d2)naphthalen-1-yl)-2-(((S,E)-2-(fluoromethylene)tetrahydro-1H-pyrrolizin-7a(5H)-yl)methoxy)pyrido[4,3-d]pyrimidin-4-yl)-5-oxa-2-azabicyclo[5.1.0]octane]
- IC50: < 50 nM

Structure (SMILES): [2H]C([2H])(F)Oc1c(F)ccc2cccc(-c3ncc4c(N5CCOC[C@H]6[C@H](F)[C@H]65)nc(OC[C@@]56CCCN5C/C(=C\F)C6)nc4c3F)c12 [Example 157, (1S,7S,8S)-8-fluoro-2-(8-fluoro-7-(7-fluoro-8-(fluoromethoxy-d2)naphthalen-1-yl)-2-(((S,Z)-2-(fluoromethylene)tetrahydro-1H-pyrrolizin-7a(5H)-yl)methoxy)pyrido[4,3-d]pyrimidin-4-yl)-5-oxa-2-azabicyclo[5.1.0]octane]
- IC50: < 50 nM

Structure (SMILES): C#Cc1c(F)ccc2cc(N)cc(-c3ncc4c(N5CCOC[C@H]6[C@H](F)[C@H]65)nc(OC[C@@]56CCCN5CC(=C)C6)nc4c3F)c12 [Example 158, 5-Ethynyl-6-fluoro-4-(8-fluoro-4-((1S,7S,8S)-8-fluoro-5-oxa-2-azabicyclo[5.1.0]octan-2-yl)-2-(((S)-2-methylenetetrahydro-1H-pyrrolizin-7a(5H)-yl)methoxy)pyrido[4,3-d]pyrimidin-7-yl)naphthalen-2-amine]
- IC50: < 50 nM

Structure (SMILES): [2H]C([2H])(Oc1nc(N2CCOC[C@H]3[C@H](F)[C@H]32)c2cc(Cl)c(-c3nc(N)cc(C)c3C(F)(F)F)c(F)c2n1)[C@@]12CCCN1C[C@H](F)C2 [Example 159, 6-(6-Chloro-8-fluoro-4-((1S,7S,8S)-8-fluoro-5-oxa-2-azabicyclo[5.1.0]octan-2-yl)-2-(((2R,7aS)-2-fluorotetrahydro-1H-pyrrolizin-7a(5H)-yl)methoxy-d2)quinazolin-7-yl)-4-methyl-5-(trifluoromethyl)pyridin-2-amine]
- IC50: < 50 nM

Structure (SMILES): [2H]C([2H])(Oc1nc(N2CCOC[C@@H]3[C@@H](F)[C@@H]32)c2cc(Cl)c(-c3nc(N)cc(C)c3C(F)(F)F)c(F)c2n1)[C@@]12CCCN1C[C@H](F)C2 [Example 160, 6-(6-chloro-8-fluoro-4-((1R,7R,8R)-8-fluoro-5-oxa-2-azabicyclo[5.1.0]octan-2-yl)-2-(((2R,7aS)-2-fluorotetrahydro-1H-pyrrolizin-7a(5H)-yl)methoxy-d2)quinazolin-7-yl)-4-methyl-5-(trifluoromethyl)pyridin-2-amine]
- IC50: 50 to 500 nM

Structure (SMILES): C#Cc1c(F)ccc2cc(N)cc(-c3ncc4c(N5CCOC[C@H]6[C@H](F)[C@H]65)nc(OC[C@@]56CCCN5C/C(=C/F)C6)nc4c3F)c12 [Example 161, 5-Ethynyl-6-fluoro-4-(8-fluoro-4-((1S,7S,8S)-8-fluoro-5-oxa-2-azabicyclo[5.1.0]octan-2-yl)-2-(((S,E)-2-(fluoromethylene)tetrahydro-1H-pyrrolizin-7a(5H)-yl)methoxy)pyrido[4,3-d]pyrimidin-7-yl)naphthalen-2-amine]
- IC50: < 50 nM

Structure (SMILES): [2H]C([2H])(F)Oc1c(F)c(F)cc2cc(N)cc(-c3ncc4c(N5CCOC[C@H]6[C@H](F)[C@H]65)nc(OC[C@@]56CCCN5C/C(=C\F)C6)nc4c3F)c12 [Example 162, 6,7-Difluoro-4-(8-fluoro-4-((1S,7S,8S)-8-fluoro-5-oxa-2-azabicyclo[5.1.0]octan-2-yl)-2-(((S,Z)-2-(fluoromethylene)tetrahydro-1H-pyrrolizin-7a(5H)-yl)methoxy)pyrido[4,3-d]pyrimidin-7-yl)-5-(fluoromethoxy-d2)naphthalen-2-amine]
- IC50: < 50 nM

Structure (SMILES): [2H]C([2H])(Oc1nc(N2CCOC[C@H]3[C@H](F)[C@H]32)c2cc(F)c(-c3cc(N)cc(C4CC4)c3C(F)(F)F)c(F)c2n1)[C@@]12CCCN1C[C@H](F)C2 [Example 163, 3-cyclopropyl-5-(6,8-difluoro-4-((1S,7S,8S)-8-fluoro-5-oxa-2-azabicyclo[5.1.0]octan-2-yl)-2-(((2R,7aS)-2-fluorotetrahydro-1H-pyrrolizin-7a(5H)-yl)methoxy-d2)quinazolin-7-yl)-4-(trifluoromethyl)aniline]
- IC50: 500 to 10000 nM

Structure (SMILES): [2H]C([2H])(Oc1nc(N2CCOC[C@@H]3[C@@H](F)[C@@H]32)c2cc(F)c(-c3cc(N)cc(C4CC4)c3C(F)(F)F)c(F)c2n1)[C@@]12CCCN1C[C@H](F)C2 [Example 164, 3-cyclopropyl-5-(6,8-difluoro-4-((1R,7R,8R)-8-fluoro-5-oxa-2-azabicyclo[5.1.0]octan-2-yl)-2-(((2R,7aS)-2-fluorotetrahydro-1H-pyrrolizin-7a(5H)-yl)methoxy-d2)quinazolin-7-yl)-4-(trifluoromethyl)aniline]
- IC50: 500 to 10000 nM

Structure (SMILES): [2H]C([2H])(Oc1nc(N2CCOC[C@H]3[C@H](F)[C@H]32)c2cnc(-c3cc(N)cc(C4CC4)c3C(F)(F)F)c(F)c2n1)[C@@]12CCCN1C[C@H](F)C2 [Example 165, 3-cyclopropyl-5-(8-fluoro-4-((1S,7S,8S)-8-fluoro-5-oxa-2-azabicyclo[5.1.0]octan-2-yl)-2-(((2R,7aS)-2-fluorotetrahydro-1H-pyrrolizin-7a(5H)-yl)methoxy-d2)pyrido[4,3-d]pyrimidin-7-yl)-4-(trifluoromethyl)aniline]
- IC50: 50 to 500 nM
